Reference: US7312323B2, “Enzymes and polynucleotides encoding the same” (The Horticulture and Food Research Institute of New Zealand …, priority 2002, dated 2007)

Experiments:
Heliothis virescens = conditions: Mozuraitis et al. 2002; cited from earlier work
[1] = Bülow and König 2000; cited from earlier work
[2] = Thermal rearrangement, pentane extracts from purified protein injected at different port temperatures; type: physicochemical
Experimental: Dynamic headspace methods were also used to collect the headspace volatiles from the purified extracts on to 100 mg Chromosorb 105 adsorbent traps. The protein was placed into 50 mL Quickfit® test tubes, which were fitted with a headspace adaptor with an air inlet and outlet. Volatiles were collected onto the Chromosorb 105 adsorbent traps, which were fitted to the air outlet port of each adaptor. The volatiles were purged from the vessel onto the traps with clean air at 50 mL min^−1 for 18 hours. The traps were stored at −15° C. for up to one week, and then subjected to GC-FIDIMS analysis. Finally, pentane extracts were taken from the purified extracts. An aliquot (2.5 ml) of pentane was added to the purified extracts and was left to extract for 18 hours. The pentane was removed and then concentrated with a stream of N2 gas. This was then injected onto the GC-MS at 150° C.
More light can be shed on the possibility of rearrangement of the products using pentane extraction.
In an experiment to test for thermal rearrangement, injections of pentane extract from purified protein were made at temperatures of 125, 150 and 210° C.; or pentane extract from Actinidia flowers were made at temperatures of 100, 125, 150 and 210° C. […] Germacrene B modulated slightly in response to temperature shifts although no gamma-elemene was found as might be predicted. In addition the predicted precursor for delta elemene—germacrene C (Feger et al., Flavour and Fragrance Journal 15: 170-173 (2000)) was not detected at any time. Germacrene A was also not detected at any time. […] Elemol may arise from further rearrangements of delta-elemene or from other elemene sources or from hedycaryol (Chamblee et al., J. Essent. Oil Res. 9: 127-132 (1997)). No GC-MS traces in any experiments indicated evidence for germacrene-C or for hedycaryol.

Periplanata americana L. = conditions: Nishino et al. 1977; cited from earlier work
[3] = Thermal rearrangement, pentane extracts from Actinidia flowers injected at different port temperatures; type: physicochemical
Experimental: Whole flowers of the same plants were also harvested at anthesis in 2000. 18.6 g and 21 g of flowers from a mixture of developmental stages were placed in 2× Quickfit® Erlenmeyer flasks as above. Volatiles were collected onto a Chromosorb adsorbent trap in duplicate, after the system had been equilibrated for 30 min at room temperature (ca. 23° C.), by purging onto the trap with clean air at 25 mL min^−1 for 60 minutes. The trap was stored at −15° C. for one week and then analysed by GC-FD/MS. The same petals (1.99 g) were then extracted with pentane-ether (2 ml) and stored at −20° C. until analysed. The pentane (GPR, BDH) had been purified by distillation and by passing through a column of activated alumina. Pentane extracts were reduced by rotary evaporation and were dried by passing through a small column of anhydrous MgSO4 before the volume was reduced to ca. 50 μL under a gentle stream of nitrogen. The extract was analysed by GC-FID/MS.
GC-MS Analysis of dynamic headspace samples and pentane extracts: Volatile compounds were thermally desorbed from the headspace traps at 150° C. and were cryo-focussed at the beginning of the GC column (Young, 1981). The column outlet was split between the GC (Hewlett Packard 5890) FID detector (for quantitation) and VG-70SE (VG-Micromass, Manchester, U.K.) mass spectrometer (for component identification) with an electron impact ionisation of 70 eV. Separations were carried out in a 30 m×0.32 mm i.d., 0.5 μn DBWax capillary column (J & W Scientific, Folsom, USA), starting at 30° C. for 6 min, increasing by 3° C. min^−1 to 102° C., 5° C. min^−1 to 210° C. and held for 5 min. Injector temperature was 210° C. The carrier gas was He at a flow rate of ˜30 cm s^−1, and the FID and mass spectrometer transfer line were at 210° C. Quantification of compounds was carried out using an average detector response based on methyl butanoate, ethyl butanoate, hexanol and methyl benzoate. Components were identified by comparison with spectra in the mass spectral database (NIST 1998, Wiley 7 and an in-house database), retention indices (in-house database) and in some cases direct GC-MS comparison with authentic standards. Separations for the earlier 2000 samples were carried out in the same manner as above except the programme started at 30° C. for 6 min, increasing by 3° C. min^−1 to 102° C., 5° C. min^−1 to 190° C. and held for 5 min. Analysis of the pentane extract used a programme of 2 min at 40° C., 5° C. min^−1 to 200° C., 15° C. m^−1 to 240° C. and held for 20 min. For genotype 32-10-07a: the GC-MS was programmed to start at 30° C. for 2 min, increasing by 3° C. min^−1 to 50° C., 5° C. min^−1 to 130° C., 10° C. min^−1 to 240° C. and held for 2 min. Injector temperature was 240° C.
In an experiment to test for thermal rearrangement, injections of pentane extract from purified protein were made at temperatures of 125, 150 and 210° C.; or pentane extract from Actinidia flowers were made at temperatures of 100, 125, 150 and 210° C.

[4] = injection port temperature 125 °C
[5] = injection port temperature 150 °C
[6] = injection port temperature 210 °C

Peak Area [2, 4]: 4.22 × 10^6 | Peak Area [2, 5]: 4.90 × 10^6 | Peak Area [2, 6]: 3.91 × 10^6 | Peak Area ([3]; injection port temperature 100 °C): 2.85 × 10^7 ^ | Peak Area [3, 4]: 3.78 × 10^7 | Peak Area [3, 5]: 3.87 × 10^7 | Peak Area [3, 6]: 2.42 × 10^7
Compound: C=C1C=CC(C(C)C)CCC(C)=CCC1 (stereo not shown) [Germacrene D, 7-iso-propyl-10-methyl-4-methylene-cyclodeca-5,10-diene]
effect on moth behaviour (Heliothis virescens): increase attraction of and oviposition | temperature up to which stable [1]: up to 180 °C | effect on male cockroach (Periplanata americana L.): sex stimulant
